Reference: patent US5773423A (priority 1994, dated 1998)
Like-named read-outs stand apart in the source and are kept apart here. One block for each compound: values may come before it.

Tests used:
[1] = molecular target: T1, A1 receptors from rat brain membranes (Rattus norvegicus, UniProt P25099); experiment: biochemical; type: binding
T1 construct: Rat cerebral cortical and striatal membranes were prepared; from tissue; host or cells: rat brain (cerebral cortical) membranes
T1 sequence (P25099 1-326): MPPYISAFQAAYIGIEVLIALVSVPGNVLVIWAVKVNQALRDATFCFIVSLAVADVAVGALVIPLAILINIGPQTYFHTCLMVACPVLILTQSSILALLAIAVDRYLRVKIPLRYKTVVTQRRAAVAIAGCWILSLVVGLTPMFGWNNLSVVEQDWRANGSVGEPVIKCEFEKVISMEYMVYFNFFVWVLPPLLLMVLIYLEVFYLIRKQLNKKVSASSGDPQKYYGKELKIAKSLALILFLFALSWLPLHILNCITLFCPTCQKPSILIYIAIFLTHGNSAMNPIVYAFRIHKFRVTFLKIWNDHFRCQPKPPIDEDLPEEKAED

[2] = molecular target: T2, A2 receptors from rat striatal membranes (Rattus norvegicus, UniProt P30543); experiment: Radioligand binding at A2 (A2a) receptors, displacement of [3H]CGS 21680 (or [3H]NECA with 50 nM CPA) from rat striatal membranes
T2 construct: Rat cerebral cortical and striatal membranes were prepared; from tissue; host or cells: rat striatal membranes

[3] = rat brain membranes, displacement of [3H]PIA (or [3H]CHA), read-out: A1 affinity Ki
[4] = rat striatal membranes, displacement of [3H]CGS 21680 (or [3H]NECA + 50 nM CPA), read-out: A2 affinity Ki
[5] = Table 2, [3H]CGS 21680, rat striatal membranes, read-out: Ki (A2)
[6] = Table 2, [3H]PIA, rat brain membranes, read-out: Ki (A1)
[7] = at 100 μM, read-out: A1 percent displacement
[8] = at 100 μM, read-out: A2 percent displacement
[9] = read-out: A2 percent displacement
[10] = Table 4, [3H]PIA, rat brain membranes, read-out: Ki (A1)
[11] = Table 4, [3H]CGS 21680, rat striatal membranes, read-out: Ki (A2)
[12] = read-out: A1 percent displacement

T2 sequence (P30543 whole entry): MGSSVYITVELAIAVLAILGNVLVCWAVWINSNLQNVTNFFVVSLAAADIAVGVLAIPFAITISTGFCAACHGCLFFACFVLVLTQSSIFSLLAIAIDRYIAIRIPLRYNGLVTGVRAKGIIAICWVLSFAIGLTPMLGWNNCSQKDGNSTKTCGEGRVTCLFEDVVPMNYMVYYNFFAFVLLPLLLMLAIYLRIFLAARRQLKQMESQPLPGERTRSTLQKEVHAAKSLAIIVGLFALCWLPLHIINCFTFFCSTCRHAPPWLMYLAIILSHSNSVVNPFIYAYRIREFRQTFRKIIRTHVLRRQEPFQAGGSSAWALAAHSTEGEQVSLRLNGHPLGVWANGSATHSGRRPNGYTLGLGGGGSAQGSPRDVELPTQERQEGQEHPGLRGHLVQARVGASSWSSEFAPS

SMILES: C[C@H]1O[C@@H](n2cnc3c(N)ncnc32)[C@H](O)[C@@H]1O [Compound 73, 5'-deoxyadenosine, reference compound]
Ki [1, 3]: 269 ± 135 nM
Ki [2, 4]: 596 ± 54 nM

SMILES: COc1nc2c(c(=O)n(C)c(=O)n2C)n1[C@@H]1O[C@H](CO)[C@@H](O)[C@H]1O [Example 59, 8-methoxytheophylline-7-β-D-ribofuranoside]
inhibition at 100 µM ([1]; Table 4, at 10^-4 M, read-out: percent displacement of radioligand at A1): 21 ± 3%
inhibition at 100 µM ([2]; Table 4, at 10^-4 M, read-out: percent displacement of radioligand at A2): 4%

SMILES: O=c1[nH]c(=O)c2ncn([C@@H]3O[C@H](CO)[C@@H](O)[C@H]3O)c2[nH]1 [Compound 81, xanthosine, reference compound]
inhibition at 100 µM [1, 7]: 9.1 ± 2.4%
inhibition at 100 µM [2, 8]: 8.5 ± 2.5%

SMILES: Nc1ncnc2c1ncn2[C@H]1C[C@H](O)[C@@H](CO)O1 [Compound 70, 2'-deoxyadenosine, reference compound]
inhibition at 100 µM [1, 7]: 30.9 ± 8%
inhibition at 100 µM [2, 8]: 38.9 ± 2.9%

SMILES: CCCCCCn1c(=O)c2[nH]cnc2n(CCCCCC)c1=O [Compound 110, 1,3-dihexylX, reference compound]
Ki [1, 3]: 1260 nM
inhibition at 10 µM [2, 9]: 14.3 ± 3%

SMILES: CCCCn1c(=O)n(Cc2ccccc2)c(=O)c2c1ncn2[C@@H]1O[C@H](CO)[C@@H](O)[C@H]1O [Compound 120, 1-benzyl-3-butylxanthine-7-β-D-ribofuranoside]
potency increase at A1 and A2a receptors vs 1,3-di-n-butylxanthine-7-β-D-ribofuranoside [1]: 2-4 fold
Ki [1, 10]: 2190 nM
Ki [2, 11]: 8670 nM
Ki [2, 4]: 3800 nM

SMILES: CCCn1c(=O)c2c(ncn2[C@@H]2O[C@H](CO)[C@@H](O)[C@H]2O)n(CCC)c1=O [Compound 118, 1,3-di-n-propylxanthine-7-β-D-ribofuranoside, reference compound]
Ki [1, 3]: 15900 nM
inhibition at 100 µM [2, 9]: 32 ± 1.1%
inhibition at 100 µM ([2]; read-out: percent displacement of radioligand at A2): 32%

SMILES: Nc1ncnc2c1nc(Br)n2[C@@H]1O[C@H](CO)[C@@H](O)[C@H]1O [Compound 31, 8-bromoadenosine, reference compound]
inhibition at 100 µM [1, 12]: 41.5 ± 3.2%
Ki [2, 4]: 22700 nM

SMILES: Nc1ncnc2c1ncn2[C@@H]1O[C@H](COP(=O)(O)O)[C@@H](O)[C@H]1O [Compound 78, adenosine-5'-monophosphate, reference compound]
Ki [1]: 47500 ± 6500 nM
inhibition at 100 µM [2, 9]: 57.5 ± 4%

SMILES: NCCNC(=O)[C@H]1O[C@@H](n2cnc3c(N)ncnc32)[C@H](O)[C@@H]1O [Compound 25, 5'-N-aminoethylaminocarboxamidoadenosine]
inhibition at 100 µM [1, 12]: 0%
inhibition at 100 µM [2, 9]: 12.5%

SMILES: Nc1nc2c(ncn2[C@@H]2O[C@H](CO)[C@@H](O)[C@H]2O)c(=S)[nH]1 [Compound 88, 6-thioguanosine, reference compound]
inhibition at 100 µM [1, 7]: 44.2 ± 2.3%
inhibition at 100 µM [2, 8]: 27.7 ± 5.8%

SMILES: Nc1ccn([C@@H]2O[C@H](CO)[C@@H](O)[C@H]2O)c(=O)n1 [Compound 84, cytidine, reference compound]
inhibition at 100 µM [1, 12]: 18 ± 1.2%
inhibition at 100 µM [2, 9]: 16 ± 1.5%

SMILES: Cc1cn([C@H]2C[C@H](O)[C@@H](CO)O2)c(=O)[nH]c1=O [Compound 83, thymidine, reference compound]
inhibition at 100 µM [1, 7]: 23.4 ± 2.5%
inhibition at 100 µM [2, 9]: 1.7 ± 3.4%

SMILES: CCCn1c(=O)[nH]c2nc(C3CCCC3)[nH]c2c1=O [Compound 129, 8-cyclopentyl-1-propylX, reference compound]
Ki [1, 3]: 226 ± 37 nM
Ki [2, 4]: 48700 nM

SMILES: Cn1c(=O)[nH]c2c(ncn2C)c1=O [Compound 105, 1,9-dimethylX, reference compound]
inhibition at 100 µM [1, 7]: 29.4 ± 1.6%
inhibition at 100 µM [2, 9]: 6 ± 6.3%

SMILES: CCCn1c(=S)[nH]c(=O)c2[nH]cnc21 [Compound 114, 2-thio-3-propylX, reference compound]
Ki [1, 3]: 26100 nM
Ki [2, 4]: 32500 nM

SMILES: CO[C@@H]1[C@H](O)[C@@H](CO)O[C@H]1n1cnc2c(N)ncnc21 [Compound 71, 2'-O-methyladenosine, reference compound]
inhibition at 100 µM [1, 7]: 29.4 ± 7.5%
inhibition at 100 µM [2, 8]: 49 ± 5%

SMILES: Nc1ncnc2c1ncn2[C@@H]1O[C@H](CO)C[C@H]1O [Compound 72, 3'-deoxyadenosine, reference compound]
inhibition at 100 µM [1, 7]: 5.8 ± 2.8%
inhibition at 100 µM [2, 8]: 26.3 ± 3.4%

SMILES: CCCCn1c(=O)c2c(ncn2[C@@H]2O[C@H](C(N)=O)[C@@H](O)[C@H]2O)n(CCCC)c1=O [Compound 123, 1,3-di-n-butylxanthine-7-β-D-ribofuronamide]
Ki [1, 3]: 2940 nM
Ki [2, 4]: 59200 nM

SMILES: CCCCn1c(=O)c2c(ncn2[C@@H]2O[C@H](CO)[C@@H](O)[C@H]2O)n(Cc2ccccc2)c1=O [Compound 121, 3-benzyl-1-butylxanthine-7-β-D-ribofuranoside]
potency increase at A1 and A2a receptors vs 1,3-di-n-butylxanthine-7-β-D-ribofuranoside ([1]; A1 and A2a receptors): 2-4 fold
Ki [1, 10]: 1720 ± 30 nM
Ki [2, 11]: 4510 nM
Ki [2, 4]: 4510 nM

SMILES: OC[C@H]1O[C@@H](n2cnc3c(=S)[nH]cnc32)[C@H](O)[C@@H]1O [Compound 89, 6-thiopurine riboside, reference compound]
inhibition at 100 µM [1, 7]: 61.2 ± 3.9%
inhibition at 100 µM [2, 9]: 33.6 ± 3.3%

SMILES: Nc1c2ncn([C@@H]3O[C@H](CO)[C@@H](O)[C@H]3O)c2nc[n+]1[O-] [Compound 34, adenosine-N^1 -oxide, reference compound]
Ki [1]: 246 ± 31 nM
Ki [2, 4]: 328 ± 60 nM

Next, values leading:

Ki [1, 3]: 65 ± 2 nM
Ki [2, 4]: 64 ± 9 nM
SMILES: CNC(=O)[C@H]1O[C@@H](n2cnc3c(NCc4cccc(Br)c4)ncnc32)[C@H](O)[C@@H]1O [Compound 41, N^6-(3-bromobenzyl)-NMCA]

Ki [1, 3]: 196 ± 52 nM
Ki [2, 4]: 83.5 ± 9.5 nM
SMILES: CCNC(=O)[C@H]1O[C@@H](n2cnc3c(=N)n(Cc4ccccc4[N+](=O)[O-])cnc32)[C@H](O)[C@@H]1O [Compound 38, N'-(2-nitrobenzyl)NECA]

A1 selectivity [1]: 8 fold
Ki [2, 5]: 172 ± 50 nM
SMILES: Nc1ccc(CCNc2ncnc3c2ncn3[C@@H]2O[C@H](CO)[C@@H](O)[C@H]2O)cc1 [APNEA, N^6-2-(4-aminophenyl)ethyladenosine, reference compound]

Ki [1, 6]: 4890 ± 2580 nM
Ki [2, 5]: 4120 ± 210 nM
SMILES: CNC(=O)[C@H]1O[C@@H](n2cnc3c(NCc4cccc(I)c4)nc(NC)nc32)[C@H](O)[C@@H]1O [Example 45, N^6-(3-iodobenzyl)-2-methylamino-9-[5-(methylamido)-β-D-ribofuranosyl]-adenine]

Ki [1, 3]: 22 ± 3 nM
Ki [2, 4]: 19 ± 0.3 nM
SMILES: CCNC(=O)[C@H]1O[C@@H](n2cnc3c(NCc4cccc(Cl)c4)ncnc32)[C@H](O)[C@@H]1O [Compound 58, N^6-(3-chlorobenzyl)adenosine-5'-N-ethyluronamide]

inhibition at 100 µM [1, 7]: 0%
inhibition at 100 µM [2, 9]: 6.2 ± 4.2%
SMILES: CNC(=O)[C@H]1O[C@@H](n2cnc3c(=O)[nH]cnc32)[C@H](O)[C@@H]1O [Compound 90, inosine-5'-N-methyluronamide]

Ki [1, 3]: 431 ± 45 nM
Ki [2, 4]: 1590 nM
SMILES: CNC(=O)[C@H]1O[C@@H](n2cnc3c(NCc4ccc(N)cc4)ncnc32)[C@H](O)[C@@H]1O [Compound 50, N^6-(4-aminobenzyl)-NMCA]

Ki [1, 3]: 864 ± 88 nM
Ki [2, 4]: 8530 nM
SMILES: [O-][n+]1cnc2c(ncn2[C@@H]2O[C@H](CO)[C@@H](O)[C@H]2O)c1NCc1ccccc1 [Compound 36, N^6 -benzyladenosine-N^1 -oxide]

Ki [1, 3]: 51 ± 7 nM
Ki [2, 4]: 32 ± 4 nM
SMILES: CCNC(=O)[C@H]1O[C@@H](n2cnc3c(NCc4cccc(F)c4)ncnc32)[C@H](O)[C@@H]1O [Compound 57, N^6-(3-fluorobenzyl)adenosine-5'-N-ethyluronamide]

Ki [1, 3]: 341 ± 52 nM
Ki [2, 4]: 190 ± 52 nM
SMILES: CCNC(=O)[C@H]1O[C@@H](n2cnc3c(=N)n(Cc4ccc([N+](=O)[O-])cc4)cnc32)[C@H](O)[C@@H]1O [Compound 37]

inhibition at 100 µM [1, 7]: 0%
inhibition at 100 µM [2, 9]: 0%
SMILES: CC(C)(C)OC(=O)NCCNC(=O)[C@H]1O[C@@H](n2cnc3c(N)ncnc32)[C@H](O)[C@@H]1O [Compound 26, 5'-N-boc-aminoethylaminocarboxamidoadenosine]

Ki [1, 3]: 52 ± 5 nM
Ki [2, 4]: 21 ± 3 nM
SMILES: CCNC(=O)[C@H]1O[C@@H](n2cnc3c(NCc4ccccc4OC)ncnc32)[C@H](O)[C@@H]1O [Compound 65, N^6-(2-methoxybenzyl)-NECA]

Ki [1, 3]: 78 ± 10 nM
Ki [2, 4]: 35 ± 7 nM
SMILES: CCNC(=O)[C@H]1O[C@@H](n2cnc3c(NCc4cccc([N+](=O)[O-])c4)ncnc32)[C@H](O)[C@@H]1O [Compound 62, N^6-(3-nitrobenzyl)-NECA]

Ki [1, 3]: 898 ± 124 nM
Ki [2, 4]: 597 ± 42 nM
SMILES: CNC(=O)[C@H]1O[C@@H](n2cnc3c(NCc4ccccc4)ncnc32)[C@H](O)[C@@H]1O [Compound 40, N^6-benzyladenosine-5'-N-methyluronamide]

Ki [1, 3]: 3.2 ± 0.1 nM
Ki [2, 4]: 259 ± 15 nM
SMILES: CCNC(=O)[C@H]1O[C@@H](n2cnc3c(N[C@H](C)c4ccccc4)ncnc32)[C@H](O)[C@@H]1O [Compound 55, N^6 -(R-phenylethyl)-NECA]

factor less potent than N6-(3-iodobenzyl)-adenosine at A1 receptors [1]: 3.2 factor
Ki [1, 6]: 63.8 ± 15.1 nM
factor less potent than N6-(3-iodobenzyl)-adenosine at A2a receptors [2]: 6.7 factor
Ki [2, 5]: 117 ± 15 nM
SMILES: Nc1nc(NCc2cccc(I)c2)c2ncn([C@@H]3O[C@H](CO)[C@@H](O)[C@H]3O)c2n1 [Example 43, 2-amino-N^6-(3-iodobenzyl)-9-[β-D-ribofuranosyl]-adenine]
